Tests used:
Thromboxane A2 receptor = biological target: T1, Thromboxane A2 receptor (Homo sapiens, UniProt P21731)
T1 sequence (P21731 whole entry): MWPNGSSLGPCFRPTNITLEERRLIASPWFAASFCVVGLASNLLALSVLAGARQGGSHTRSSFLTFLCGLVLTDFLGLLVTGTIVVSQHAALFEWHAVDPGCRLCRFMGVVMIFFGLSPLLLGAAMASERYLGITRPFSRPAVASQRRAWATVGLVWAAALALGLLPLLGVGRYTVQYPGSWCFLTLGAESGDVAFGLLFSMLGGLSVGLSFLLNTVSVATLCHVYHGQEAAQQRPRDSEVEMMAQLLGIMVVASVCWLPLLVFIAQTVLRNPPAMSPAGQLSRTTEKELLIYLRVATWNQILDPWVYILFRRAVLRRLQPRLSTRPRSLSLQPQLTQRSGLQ

Mu-type opioid receptor = Mu-type opioid receptor (Homo sapiens, UniProt P35372); experiment: biochemical; type: functional
Sequence of Mu-type opioid receptor (P35372 whole entry): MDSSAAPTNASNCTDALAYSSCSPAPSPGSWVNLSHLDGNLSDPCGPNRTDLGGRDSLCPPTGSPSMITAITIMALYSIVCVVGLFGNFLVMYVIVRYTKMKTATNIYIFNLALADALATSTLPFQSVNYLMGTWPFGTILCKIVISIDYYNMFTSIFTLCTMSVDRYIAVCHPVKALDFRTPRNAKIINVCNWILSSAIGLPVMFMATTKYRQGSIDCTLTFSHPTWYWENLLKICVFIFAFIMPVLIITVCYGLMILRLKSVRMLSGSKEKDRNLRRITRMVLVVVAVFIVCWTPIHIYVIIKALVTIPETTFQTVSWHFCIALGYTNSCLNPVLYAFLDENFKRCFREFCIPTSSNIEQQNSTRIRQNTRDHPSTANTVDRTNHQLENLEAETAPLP

[1] = biological target: Neuronal acetylcholine receptor subunit alpha-4 (Homo sapiens, UniProt P43681)
Sequence of Neuronal acetylcholine receptor subunit alpha-4 (P43681 whole entry): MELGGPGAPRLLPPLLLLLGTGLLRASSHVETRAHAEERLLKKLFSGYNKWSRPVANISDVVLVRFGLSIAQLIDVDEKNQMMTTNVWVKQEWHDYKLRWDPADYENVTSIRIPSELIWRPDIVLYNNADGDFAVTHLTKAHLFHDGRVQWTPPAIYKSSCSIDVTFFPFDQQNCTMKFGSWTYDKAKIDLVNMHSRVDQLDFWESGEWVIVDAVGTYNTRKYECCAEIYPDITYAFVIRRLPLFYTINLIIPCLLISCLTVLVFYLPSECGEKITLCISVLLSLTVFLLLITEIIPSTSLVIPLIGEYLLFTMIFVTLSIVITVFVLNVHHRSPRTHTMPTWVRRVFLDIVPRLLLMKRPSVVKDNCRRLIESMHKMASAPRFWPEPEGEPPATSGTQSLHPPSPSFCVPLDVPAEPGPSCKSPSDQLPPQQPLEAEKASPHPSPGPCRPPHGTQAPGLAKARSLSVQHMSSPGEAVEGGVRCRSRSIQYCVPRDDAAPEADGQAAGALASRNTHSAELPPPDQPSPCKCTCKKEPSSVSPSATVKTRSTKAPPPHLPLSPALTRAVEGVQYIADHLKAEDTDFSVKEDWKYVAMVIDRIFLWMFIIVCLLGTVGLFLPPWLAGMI

Cannabinoid receptor 1 = Cannabinoid receptor 1 (Homo sapiens, UniProt P21554); type: functional, cell-based
Sequence of Cannabinoid receptor 1 (P21554 whole entry): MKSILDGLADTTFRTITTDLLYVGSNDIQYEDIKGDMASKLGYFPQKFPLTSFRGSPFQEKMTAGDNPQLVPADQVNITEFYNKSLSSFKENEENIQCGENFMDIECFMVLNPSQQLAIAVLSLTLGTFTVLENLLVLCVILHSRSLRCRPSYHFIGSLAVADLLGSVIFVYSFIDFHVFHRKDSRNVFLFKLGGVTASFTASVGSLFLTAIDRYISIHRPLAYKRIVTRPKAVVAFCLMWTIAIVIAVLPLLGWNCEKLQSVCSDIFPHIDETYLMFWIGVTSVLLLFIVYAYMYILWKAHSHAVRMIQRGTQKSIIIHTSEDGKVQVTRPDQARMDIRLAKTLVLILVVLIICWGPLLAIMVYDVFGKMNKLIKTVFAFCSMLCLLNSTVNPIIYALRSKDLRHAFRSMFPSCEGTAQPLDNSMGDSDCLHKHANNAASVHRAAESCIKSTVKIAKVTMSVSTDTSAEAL

[2] = biological target: Growth hormone secretagogue receptor type 1 (Homo sapiens, UniProt Q92847)
Sequence of Growth hormone secretagogue receptor type 1 (Q92847 whole entry): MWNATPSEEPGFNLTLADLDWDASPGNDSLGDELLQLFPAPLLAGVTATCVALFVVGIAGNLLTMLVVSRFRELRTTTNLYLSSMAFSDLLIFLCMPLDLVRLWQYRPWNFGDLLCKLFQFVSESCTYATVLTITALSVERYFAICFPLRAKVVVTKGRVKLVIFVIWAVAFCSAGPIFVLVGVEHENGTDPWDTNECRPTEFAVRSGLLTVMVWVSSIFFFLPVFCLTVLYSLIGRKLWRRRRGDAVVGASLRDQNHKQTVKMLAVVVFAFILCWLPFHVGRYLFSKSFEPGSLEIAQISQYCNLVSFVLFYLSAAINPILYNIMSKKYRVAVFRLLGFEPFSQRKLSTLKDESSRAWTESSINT

[3] = biological target: 5-hydroxytryptamine receptor 2B (Homo sapiens, UniProt P41595); type: functional, cell-based
Sequence of 5-hydroxytryptamine receptor 2B (P41595 whole entry): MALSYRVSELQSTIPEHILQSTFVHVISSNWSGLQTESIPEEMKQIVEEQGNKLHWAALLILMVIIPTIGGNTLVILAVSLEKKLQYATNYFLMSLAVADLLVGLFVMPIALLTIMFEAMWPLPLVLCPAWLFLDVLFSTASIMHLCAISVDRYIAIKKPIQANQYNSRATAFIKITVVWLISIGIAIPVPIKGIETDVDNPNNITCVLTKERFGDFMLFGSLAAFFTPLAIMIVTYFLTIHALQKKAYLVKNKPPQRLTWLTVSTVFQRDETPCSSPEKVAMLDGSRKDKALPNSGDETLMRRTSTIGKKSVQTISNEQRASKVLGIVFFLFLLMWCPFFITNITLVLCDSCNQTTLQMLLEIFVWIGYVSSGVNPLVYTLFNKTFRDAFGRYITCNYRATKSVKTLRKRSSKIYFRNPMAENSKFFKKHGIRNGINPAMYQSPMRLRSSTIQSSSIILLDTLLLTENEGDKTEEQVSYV

Histamine H3 receptor = Histamine H3 receptor (Homo sapiens, UniProt Q9Y5N1)
Sequence of Histamine H3 receptor (Q9Y5N1 whole entry): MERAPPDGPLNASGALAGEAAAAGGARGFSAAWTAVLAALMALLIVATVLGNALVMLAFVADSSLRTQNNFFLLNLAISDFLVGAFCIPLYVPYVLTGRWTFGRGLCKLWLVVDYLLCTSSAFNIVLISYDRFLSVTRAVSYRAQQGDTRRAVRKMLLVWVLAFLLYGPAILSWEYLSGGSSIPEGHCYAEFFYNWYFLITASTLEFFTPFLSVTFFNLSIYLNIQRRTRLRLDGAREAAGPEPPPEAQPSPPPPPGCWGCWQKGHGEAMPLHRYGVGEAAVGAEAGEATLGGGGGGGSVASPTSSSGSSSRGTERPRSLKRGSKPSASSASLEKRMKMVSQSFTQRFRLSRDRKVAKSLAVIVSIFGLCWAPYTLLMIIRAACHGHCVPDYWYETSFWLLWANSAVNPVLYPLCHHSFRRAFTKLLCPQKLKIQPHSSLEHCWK

[4] = biological target: 5-hydroxytryptamine receptor 2A (Homo sapiens, UniProt P28223); type: functional, cell-based
Sequence of 5-hydroxytryptamine receptor 2A (P28223 whole entry): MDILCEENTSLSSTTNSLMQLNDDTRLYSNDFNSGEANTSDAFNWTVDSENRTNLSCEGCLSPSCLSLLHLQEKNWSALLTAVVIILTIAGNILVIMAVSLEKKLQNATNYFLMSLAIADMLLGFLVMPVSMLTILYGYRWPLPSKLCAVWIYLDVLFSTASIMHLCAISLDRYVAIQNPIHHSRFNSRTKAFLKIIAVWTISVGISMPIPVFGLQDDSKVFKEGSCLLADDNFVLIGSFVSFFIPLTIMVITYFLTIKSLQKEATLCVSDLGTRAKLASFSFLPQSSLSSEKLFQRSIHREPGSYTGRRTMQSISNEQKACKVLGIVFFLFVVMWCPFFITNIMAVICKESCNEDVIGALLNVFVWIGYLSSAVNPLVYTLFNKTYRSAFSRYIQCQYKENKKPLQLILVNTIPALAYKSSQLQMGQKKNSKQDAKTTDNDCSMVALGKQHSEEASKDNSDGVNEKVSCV

[5] = biological target: Sodium-dependent dopamine transporter (Homo sapiens, UniProt Q01959)
[6] = biological target: T2, Gastrin/cholecystokinin type B receptor (Homo sapiens, UniProt P32239)
T2 sequence (P32239 whole entry): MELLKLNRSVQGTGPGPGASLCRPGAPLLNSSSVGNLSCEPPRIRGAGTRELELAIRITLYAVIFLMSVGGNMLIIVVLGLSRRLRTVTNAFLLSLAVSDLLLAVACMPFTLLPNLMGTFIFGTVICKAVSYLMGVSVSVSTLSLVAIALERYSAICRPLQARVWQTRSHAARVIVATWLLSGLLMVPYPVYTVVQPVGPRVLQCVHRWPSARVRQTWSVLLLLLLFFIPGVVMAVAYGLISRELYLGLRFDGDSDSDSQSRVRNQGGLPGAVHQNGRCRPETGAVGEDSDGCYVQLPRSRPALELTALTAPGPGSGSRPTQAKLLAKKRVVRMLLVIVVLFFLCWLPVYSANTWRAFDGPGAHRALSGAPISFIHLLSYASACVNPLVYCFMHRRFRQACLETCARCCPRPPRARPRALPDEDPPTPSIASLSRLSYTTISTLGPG

[7] = biological target: T3, 5-hydroxytryptamine receptor 3A (Homo sapiens, UniProt P46098); type: functional
T3 sequence (P46098 whole entry): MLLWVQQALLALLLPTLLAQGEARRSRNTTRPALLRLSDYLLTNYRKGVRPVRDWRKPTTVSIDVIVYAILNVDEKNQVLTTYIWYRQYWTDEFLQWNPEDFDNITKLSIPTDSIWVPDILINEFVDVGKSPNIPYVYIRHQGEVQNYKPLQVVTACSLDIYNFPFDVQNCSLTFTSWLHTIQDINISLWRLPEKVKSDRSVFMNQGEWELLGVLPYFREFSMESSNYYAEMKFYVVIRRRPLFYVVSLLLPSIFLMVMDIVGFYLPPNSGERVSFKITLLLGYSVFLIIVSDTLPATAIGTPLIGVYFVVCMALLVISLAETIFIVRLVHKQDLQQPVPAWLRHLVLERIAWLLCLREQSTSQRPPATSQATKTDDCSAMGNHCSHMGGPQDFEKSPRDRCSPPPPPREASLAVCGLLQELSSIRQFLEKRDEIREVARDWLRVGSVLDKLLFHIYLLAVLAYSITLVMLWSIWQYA

Histamine H1 receptor = Histamine H1 receptor (Homo sapiens, UniProt P35367)
Sequence of Histamine H1 receptor (P35367 whole entry): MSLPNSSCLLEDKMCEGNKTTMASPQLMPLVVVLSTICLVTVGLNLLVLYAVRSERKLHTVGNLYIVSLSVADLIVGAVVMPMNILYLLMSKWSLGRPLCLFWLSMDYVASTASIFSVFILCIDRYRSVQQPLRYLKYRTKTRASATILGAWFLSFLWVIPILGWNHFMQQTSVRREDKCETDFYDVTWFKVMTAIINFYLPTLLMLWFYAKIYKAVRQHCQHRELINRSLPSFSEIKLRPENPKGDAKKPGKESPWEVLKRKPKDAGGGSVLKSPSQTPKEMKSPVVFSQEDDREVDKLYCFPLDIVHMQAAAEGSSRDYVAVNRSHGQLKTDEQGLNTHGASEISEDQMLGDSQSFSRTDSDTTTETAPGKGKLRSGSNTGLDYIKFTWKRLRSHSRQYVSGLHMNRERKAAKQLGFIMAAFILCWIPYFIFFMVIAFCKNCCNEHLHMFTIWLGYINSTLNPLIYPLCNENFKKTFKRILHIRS

[8] = biological target: Muscarinic acetylcholine receptor M3 (Homo sapiens, UniProt P20309)
Sequence of Muscarinic acetylcholine receptor M3 (P20309 whole entry): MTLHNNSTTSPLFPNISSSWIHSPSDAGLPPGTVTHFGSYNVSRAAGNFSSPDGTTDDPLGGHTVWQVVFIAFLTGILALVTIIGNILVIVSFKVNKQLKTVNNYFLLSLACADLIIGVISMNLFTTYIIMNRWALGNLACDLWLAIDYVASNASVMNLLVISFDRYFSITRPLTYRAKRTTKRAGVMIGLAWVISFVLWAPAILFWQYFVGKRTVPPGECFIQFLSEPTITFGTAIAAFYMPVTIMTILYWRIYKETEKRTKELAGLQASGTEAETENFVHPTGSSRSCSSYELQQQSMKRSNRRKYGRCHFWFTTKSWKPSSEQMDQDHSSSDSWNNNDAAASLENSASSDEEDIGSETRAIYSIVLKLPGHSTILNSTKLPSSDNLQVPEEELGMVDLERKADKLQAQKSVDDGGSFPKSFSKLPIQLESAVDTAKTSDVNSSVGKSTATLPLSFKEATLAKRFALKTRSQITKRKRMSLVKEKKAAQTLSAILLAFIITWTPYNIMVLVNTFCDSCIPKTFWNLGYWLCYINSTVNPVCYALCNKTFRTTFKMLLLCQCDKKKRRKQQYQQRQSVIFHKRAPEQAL

[9] = biological target: T4, Alpha-2A adrenergic receptor (Homo sapiens, UniProt P08913); type: functional, cell-based
T4 sequence (P08913 whole entry): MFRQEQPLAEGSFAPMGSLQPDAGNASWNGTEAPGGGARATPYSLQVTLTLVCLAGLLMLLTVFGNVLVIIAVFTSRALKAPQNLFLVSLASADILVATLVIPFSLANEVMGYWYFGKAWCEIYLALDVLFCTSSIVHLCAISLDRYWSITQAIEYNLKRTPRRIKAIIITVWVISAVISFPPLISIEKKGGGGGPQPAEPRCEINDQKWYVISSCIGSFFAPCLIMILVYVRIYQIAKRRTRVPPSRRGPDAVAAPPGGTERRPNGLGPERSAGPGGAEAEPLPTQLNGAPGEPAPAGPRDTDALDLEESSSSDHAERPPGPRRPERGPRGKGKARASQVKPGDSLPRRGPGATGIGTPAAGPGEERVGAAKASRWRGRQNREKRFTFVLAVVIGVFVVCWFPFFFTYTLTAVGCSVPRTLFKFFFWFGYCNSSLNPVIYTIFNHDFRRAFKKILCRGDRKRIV

[10] = biological target: T5, Muscarinic acetylcholine receptor M1 (Homo sapiens, UniProt P11229); type: functional
T5 sequence (P11229 whole entry): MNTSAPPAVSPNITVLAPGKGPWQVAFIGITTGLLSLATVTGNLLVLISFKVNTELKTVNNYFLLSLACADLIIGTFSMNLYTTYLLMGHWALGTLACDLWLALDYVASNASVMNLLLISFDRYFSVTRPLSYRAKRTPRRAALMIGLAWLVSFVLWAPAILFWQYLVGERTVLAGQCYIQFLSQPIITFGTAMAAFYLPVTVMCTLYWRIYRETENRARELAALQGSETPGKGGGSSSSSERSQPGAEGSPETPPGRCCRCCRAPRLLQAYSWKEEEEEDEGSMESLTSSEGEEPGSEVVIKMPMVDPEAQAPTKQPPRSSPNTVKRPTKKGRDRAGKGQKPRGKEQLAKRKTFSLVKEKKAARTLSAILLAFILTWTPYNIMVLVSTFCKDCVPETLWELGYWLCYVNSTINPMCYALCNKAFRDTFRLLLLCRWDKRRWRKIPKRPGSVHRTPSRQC

Melanocortin receptor 4 = Melanocortin receptor 4 (Homo sapiens, UniProt P32245)
Sequence of Melanocortin receptor 4 (P32245 whole entry): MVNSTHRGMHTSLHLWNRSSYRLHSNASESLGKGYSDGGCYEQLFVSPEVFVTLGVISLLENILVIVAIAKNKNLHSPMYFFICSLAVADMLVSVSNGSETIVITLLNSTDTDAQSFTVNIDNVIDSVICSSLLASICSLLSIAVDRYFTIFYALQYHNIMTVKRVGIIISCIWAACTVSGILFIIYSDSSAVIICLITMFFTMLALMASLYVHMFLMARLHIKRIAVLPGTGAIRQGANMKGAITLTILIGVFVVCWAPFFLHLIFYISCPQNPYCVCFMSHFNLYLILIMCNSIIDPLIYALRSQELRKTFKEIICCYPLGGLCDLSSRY
Also: assay procedure not described here.

Row | SMILES | AC50 (Thromboxane A2 receptor) | AC50 (Mu-type opioid receptor) | AC50 [1] | AC50 (Cannabinoid receptor 1) | AC50 [2] | AC50 [3] | AC50 (Histamine H3 receptor) | AC50 [4] | AC50 [5] | AC50 [6] | AC50 [7] | AC50 (Histamine H1 receptor) | AC50 [8] | AC50 [9] | AC50 [10] | AC50 (Melanocortin receptor 4)
1 | Fc1ccc(C(c2ccccc2)(c2ccccc2F)n2ccnc2)cc1 (stereo unspecified) [FLUTRIMAZOLE] | 30 µM | > 30 µM | > 30 µM | > 30 µM | > 30 µM | > 30 µM | > 30 µM | > 30 µM | 23 µM | 25 µM | > 30 µM | > 30 µM | > 30 µM | > 30 µM | > 30 µM | –
2 | COc1ccc2c3c1O[C@H]1[C@@H](O)CC[C@H]4[C@@H](C2)N(C)CC[C@@]341 [DIHYDROCODEINE] | – | – | – | > 30 µM | – | > 30 µM | – | > 30 µM | – | – | > 30 µM | > 30 µM | > 30 µM | > 30 µM | > 30 µM | –
3 | CC(C)(C)NCC(O)COc1cccc2c1CCC(=O)N2 (stereo unspecified) [CARTEOLOL] | > 10 µM | – | > 10 µM | > 30 µM | > 10 µM | > 10 µM | – | > 10 µM | > 10 µM | – | > 30 µM | > 10 µM | > 30 µM | > 10 µM | > 10 µM | > 10 µM
4 | C[C@@H]1O[C@@H](O[C@@H]2C=C3CC[C@@H]4[C@H](CC[C@]5(C)[C@@H](c6ccc(=O)oc6)CC[C@]45O)[C@@]3(C)CC2)[C@H](O)[C@H](O)[C@H]1O [PROSCILLARIDIN] | > 30 µM | > 30 µM | > 30 µM | > 30 µM | > 30 µM | > 30 µM | > 30 µM | – | > 30 µM | > 30 µM | > 30 µM | – | – | > 30 µM | – | –
5 | Clc1ccccc1C(c1ccccc1)(c1ccccc1)n1ccnc1 [CLOTRIMAZOLE] | – | – | > 10 µM | > 30 µM | – | > 10 µM | > 10 µM | – | 14.8 µM | – | > 30 µM | – | – | – | – | –
6 | Brc1c(NC2=NCCN2)ccc2nccnc12 [BRIMONIDINE] | – | > 30 µM | > 30 µM | > 30 µM | > 30 µM | > 30 µM | > 30 µM | – | > 30 µM | > 30 µM | > 30 µM | – | – | – | – | –
7 | Cc1cc(C(C)(C)C)c(O)c(C)c1CC1=NCCN1 [OXYMETAZOLINE] | – | – | – | > 30 µM | – | – | – | – | > 30 µM | – | > 30 µM | – | – | – | – | –
8 | Nc1nc(Cl)nc2c1ncn2[C@H]1C[C@H](O)[C@@H](CO)O1 [CLADRIBINE] | – | > 30 µM | > 30 µM | > 30 µM | > 30 µM | > 30 µM | > 30 µM | – | > 30 µM | > 30 µM | > 30 µM | – | – | > 30 µM | – | –
9 | O=C1C(O)=C([C@H]2CC[C@H](c3ccc(Cl)cc3)CC2)C(=O)c2ccccc21 [ATOVAQUONE] | > 30 µM | > 30 µM | > 30 µM | – | > 30 µM | > 30 µM | > 30 µM | > 30 µM | > 30 µM | > 30 µM | > 30 µM | > 30 µM | > 30 µM | > 30 µM | > 30 µM | –
10 | COc1cccc(C2(O)CCCCC2CN(C)C)c1 (stereo unspecified) [TRAMADOL] | > 30 µM | – | – | > 30 µM | > 30 µM | > 10 µM | > 10 µM | – | > 10 µM | > 30 µM | > 30 µM | – | – | > 10 µM | – | > 30 µM
11 | CC1(C)CCC(CN2CCN(c3ccc(C(=O)NS(=O)(=O)c4ccc(NCC5CCOCC5)c([N+](=O)[O-])c4)c(Oc4cnc5[nH]ccc5c4)c3)CC2)=C(c2ccc(Cl)cc2)C1 [VENETOCLAX] | – | – | – | – | – | – | – | – | 22 µM | – | – | > 30 µM | – | – | > 30 µM | –
12 | NC(=O)OCC(COC(N)=O)c1ccccc1 [FELBAMATE] | > 10 µM | – | > 10 µM | – | > 10 µM | > 10 µM | – | > 10 µM | > 10 µM | – | > 30 µM | > 10 µM | > 30 µM | > 10 µM | > 10 µM | > 10 µM
13 | CC/C(=C(\c1ccccc1)c1ccc(OCCN(C)C)cc1)c1ccccc1 [TAMOXIFEN] | – | – | > 30 µM | – | – | > 10 µM | > 30 µM | – | 12.3 µM | – | > 30 µM | – | – | > 10 µM | – | –
14 | C[C@H]1COc2c(C3(N)CC3)c(F)cc3c(=O)c(C(=O)O)cn1c23 [PAZUFLOXACIN] | > 10 µM | – | > 10 µM | – | > 10 µM | > 10 µM | – | > 10 µM | > 10 µM | – | > 30 µM | > 10 µM | > 30 µM | > 10 µM | > 10 µM | > 10 µM
15 | C#C[C@]1(O)CC[C@H]2[C@@H]3[C@H](C)CC4=C(CCC(=O)C4)[C@H]3CC[C@@]21C [TIBOLONE] | > 30 µM | > 30 µM | > 30 µM | > 30 µM | > 30 µM | > 30 µM | > 30 µM | – | 27 µM | > 30 µM | > 30 µM | – | – | > 30 µM | – | –
16 | CC(CC1c2ccccc2CCc2ccccc21)CN(C)C (stereo unspecified) [BUTRIPTYLINE] | – | – | – | > 30 µM | – | > 30 µM | – | > 30 µM | – | – | > 30 µM | 0.015 µM | 1.4 µM | > 30 µM | 0.23 µM | –
17 | NC(=O)CN1CC(O)CC1=O (stereo unspecified) [OXIRACETAM] | > 30 µM | > 30 µM | > 30 µM | > 30 µM | > 30 µM | > 30 µM | > 30 µM | > 30 µM | > 30 µM | > 30 µM | > 30 µM | > 30 µM | > 30 µM | > 30 µM | > 30 µM | –
